According to patent US11214576B2, “2,3-dihydrofuro[2,3-b]pyridine compounds” (Eli Lilly and Company, priority 2018, dated 2022):

Target: human O-GlcNAc-β-N-acetylglucosaminidase (OGA) (Homo sapiens (Human), UniProt O60502)
Assay: In Vitro Human OGA Enzyme Assay
Assay type: biochemical
Settings: full-length His-tagged human OGA; FD-GlcNAc substrate 6.7 μM; 30 min pre-incubation, 60 min reaction, pH 7
Protocol: The nucleotide sequence encoding full-length human O-GlcNAc-β-N-acetylglucosaminidase (NM_012215) is inserted into pFastBacl (Invitrogen) vector with an N-terminal poly-histidine (HIS) tag. Baculovirus generation is carried out according to the Bac-to-Bac Baculovirus Expression system (Invitrogen) protocol. Sf9 cells are infected at 1.5×10^6 cells/mL using 10 mL of P1 virus per Liter of culture and incubated at 28° C. for 48 hrs. Cells are spun down, rinsed with PBS and the pellets stored at −80° C. The above OGA protein (His-OGA) is purified as follows: 4 L of cells are lysed in 200 mL of buffer containing 50 mM Tris, pH 8.0, 300 mM NaCl, 10% glycerol, 10 mM imidazole, 1 mM dithiothreitol (DTT), 0.1% Triton™ X-100, 4 tablets of protease inhibitors (complete EDTA-Free, Roche) for 45 min at 4° C. This cell lysate is then spun for 40 min at 16500 rpm at 4° C., and supernatant incubated with 6 mL of Ni-NTA resin (nickel-nitrilotriacetic acid) for 2 hours at 4° C.
Resin is then packed onto column and washed with 50 mM Tris, pH 8.0, 300 mM NaCl, 10% glycerol, 10 mM imidazole, 0.1% Triton™ X-100, 1 mM DTT, followed by 50 mM Tris, pH 8.0, 150 mM NaCl, 10 mM imidazole, 10% glycerol, 1 mM DTT. The proteins are eluted with 50 mM Tris, pH 8.0, 150 mM NaCl, 300 mM imidazole, 10% glycerol, 1 mM DTT. Pooled His-OGA containing fractions are concentrated to 6 ml and loaded onto Superdex75 (16/60). The protein is eluted with 50 mM Tris, pH 8.0, 150 mM NaCl, 10% glycerol, 2 mM DTT. Fractions containing His-OGA are pooled and protein concentration measured with BCA ([…]).
The OGA enzyme catalyses the removal of O-GlcNAc from nucleocytoplasmic proteins. To measure this activity Fluorescein di-N-acetyl-β-N-acetyl-D-glucosaminide (FD-GlcNAc, Kim, Eun Ju; Kang, Dae Ook; Love, Dona C.; Hanover, John A. Carbohydrate Research (2006), 341(8), 971-982) is used as a substrate at a final concentration of 6.7 μM (in a 384 well assay format). This fluorogenic substrate becomes fluorescent upon cleavage by OGA, so that the enzyme activity can be measured by the increase in fluorescence detected at 535 nm (excitation at 485 nm).
The assay buffer is prepared to give a final concentration of 50 mM […], 0.01% bovine serum albumin and 0.01% Triton™ X-100 in water, at pH 7. Compounds to be tested are diluted in pure dimethyl sulfoxide (DMSO) using ten point concentration response curves. Maximal compound concentration in the reaction mixture is 30 or 1 μM. […] Then, without stopping the reaction, fluorescence is read. IC50 values are calculated by plotting the normalized data vs. log of the compound and fitting the data using a four parameter logistic equation.

Chain of human O-GlcNAc-β-N-acetylglucosaminidase (OGA) (O60502 whole entry): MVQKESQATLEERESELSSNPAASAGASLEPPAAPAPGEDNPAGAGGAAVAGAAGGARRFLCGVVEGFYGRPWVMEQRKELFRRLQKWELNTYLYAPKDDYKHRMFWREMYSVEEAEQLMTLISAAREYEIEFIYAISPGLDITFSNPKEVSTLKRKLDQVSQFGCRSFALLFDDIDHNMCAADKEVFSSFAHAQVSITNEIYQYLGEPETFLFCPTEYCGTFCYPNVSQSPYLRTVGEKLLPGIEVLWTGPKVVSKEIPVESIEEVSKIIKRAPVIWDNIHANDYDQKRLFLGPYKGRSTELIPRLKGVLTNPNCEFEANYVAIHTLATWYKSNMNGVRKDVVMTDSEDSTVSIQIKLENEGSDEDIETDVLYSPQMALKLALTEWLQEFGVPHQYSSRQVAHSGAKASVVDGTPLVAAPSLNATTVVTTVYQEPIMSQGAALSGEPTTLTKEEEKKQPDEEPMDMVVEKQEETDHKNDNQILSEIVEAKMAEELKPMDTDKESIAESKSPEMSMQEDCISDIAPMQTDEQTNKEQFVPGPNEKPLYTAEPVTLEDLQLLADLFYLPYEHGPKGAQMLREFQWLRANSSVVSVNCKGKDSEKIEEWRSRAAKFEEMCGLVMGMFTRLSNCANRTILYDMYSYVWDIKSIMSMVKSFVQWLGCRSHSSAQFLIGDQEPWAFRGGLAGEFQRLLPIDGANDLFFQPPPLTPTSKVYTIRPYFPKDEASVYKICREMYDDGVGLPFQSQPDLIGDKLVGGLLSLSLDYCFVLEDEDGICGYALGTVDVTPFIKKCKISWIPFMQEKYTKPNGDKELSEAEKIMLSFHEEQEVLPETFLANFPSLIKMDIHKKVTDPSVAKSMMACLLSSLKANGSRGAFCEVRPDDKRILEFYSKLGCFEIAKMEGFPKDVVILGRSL

IC50 | SMILES
611 nM | Cc1nnc(C2CCN(C(C)c3ccc4c(n3)OCC4)CC2)o1 (single isomer, unassigned; (+)) [Example 3]
2660 ± 607 nM | Cc1nnc(C2CCN(C(C)c3nc4c(cc3F)CCO4)CC2)o1 (single isomer, unassigned; (+)) [Example 4, (+)-5-fluoro-6-[1-[4-(5-methyl-1,3,4-oxadiazol-2-yl)-1-piperidyl]ethyl]-2,3-dihydrofuro[2,3-b]pyridine]
1.24 ± 0.66 nM | Cc1nnc(C2CCN(C(C)c3ccc4c(n3)OCC4)CC2)o1 (single isomer, unassigned; (-)) [Example 1, (−)-6-[1-[4-(5-methyl-1,3,4-oxadiazol-2-yl)-1-piperidyl]ethyl]-2,3-dihydrofuro[2,3-b]pyridine]
1.13 ± 1.02 nM | Cc1nnc(C2CCN(C(C)c3nc4c(cc3F)CCO4)CC2)o1 (single isomer, unassigned; (-)) [Example 2, (−)-5-fluoro-6-[1-[4-(5-methyl-1,3,4-oxadiazol-2-yl)-1-piperidyl]ethyl]-2,3-dihydrofuro[2,3-b]pyridine]
